ChEMBL document CHEMBL3885881, “DrugMatrix”

Species on record: Rattus norvegicus
Experiment: DrugMatrix - Regimen: Daily Repeat
Format: toxicity, organism-based, Sprague-Dawley
Set-up: regimen Daily Repeat, gender Male, age 6-8 weeks
Settings: in vivo, iv, vehicle 100 % SALINE; for ABSOLUTE BASOPHIL / ABSOLUTE EOSINOPHIL / ABSOLUTE LYMPHOCYTE / ABSOLUTE MONOCYTE / ABSOLUTE SEGMENTED NEUTROPHIL / BASOPHIL / EOSINOPHIL / ERYTHROCYTE COUNT / HEMATOCRIT / HEMOGLOBIN / LEUKOCYTE COUNT / LYMPHOCYTE / MEAN CORPUSCULAR HEMOGLOBIN / MEAN CORPUSCULAR HEMOGLOBIN CONCENTRATION / MEAN CORPUSCULAR VOLUME / MONOCYTE / NEUTROPHIL / NUCLEATED RED BLOOD CELLS / PLATELET COUNT: tissue Blood; for ALANINE AMINOTRANSFERASE / ALBUMIN / ALKALINE PHOSPHATASE / ASPARTATE AMINOTRANSFERASE / BLOOD UREA NITROGEN / CARBON DIOXIDE / CHLORIDE / CHOLESTEROL / CREATINE PHOSPHOKINASE / CREATININE / GLUCOSE / LACTATE DEHYDROGENASE / LIPASE / PHOSPHORUS / POTASSIUM / SODIUM / TOTAL BILIRUBIN / TOTAL PROTEIN / URIC ACID: tissue Plasma
[1] = 200 mg/kg, 72 h, dose level Low, time 3 day
[2] = 200 mg/kg, 120 h, dose level Low, time 5 day
[3] = 671 mg/kg, 72 h, dose level High, time 3 day
[4] = 671 mg/kg, 120 h, dose level High, time 5 day

`CC1(C)[C@H](C(=O)O)N2C(=O)C[C@H]2S1(=O)=O` [SULBACTAM] was tested, and the “ABSOLUTE BASOPHIL” value [1] was 0 CELLS/uL, the “ABSOLUTE EOSINOPHIL” value [1] was 43 CELLS/uL and the “ABSOLUTE LYMPHOCYTE” value [1] was 14561.67 CELLS/uL. For the same compound, the “ABSOLUTE MONOCYTE” value [1] was 271 CELLS/uL, the “ABSOLUTE SEGMENTED NEUTROPHIL” value [1] was 824.33 CELLS/uL and the BASOPHIL [1] was 0%. For the same compound, the EOSINOPHIL [1] was 0.33%, the “ERYTHROCYTE COUNT” value [1] was 5.6 x10E6/uL and the HEMATOCRIT [1] was 36.53%. The HEMOGLOBIN [1] was 13.5 G/DL, the “LEUKOCYTE COUNT” value [1] was 15.7 x10E3/uL and the LYMPHOCYTE [1] was 93%. For the same compound, the “MEAN CORPUSCULAR HEMOGLOBIN” value [1] was 24.1 pg, the “MEAN CORPUSCULAR HEMOGLOBIN CONCENTRATION” value [1] was 36.97 G/DL and the “MEAN CORPUSCULAR VOLUME” value [1] was 65.23 fL. The MONOCYTE [1] was 1.67%, the NEUTROPHIL [1] was 5% and the “NUCLEATED RED BLOOD CELLS” value [1] was 0 /100WBC. For the same compound, the “PLATELET COUNT” value [1] was 1408.33 x10E3/uL, the “ALANINE AMINOTRANSFERASE” value [1] was 53.67 u/L and the ALBUMIN [1] was 4.27 G/DL. For the same compound, the “ALKALINE PHOSPHATASE” value [1] was 448.33 u/L, the “ASPARTATE AMINOTRANSFERASE” value [1] was 100 u/L and the “BLOOD UREA NITROGEN” value [1] was 15.67 mg/dL. The “CARBON DIOXIDE” value [1] was 25 mmol/L, the CHLORIDE [1] was 104.33 MEQ/L and the CHOLESTEROL [1] was 75.67 mg/dL. The “CREATINE PHOSPHOKINASE” value [1] was 386 u/L, the CREATININE [1] was 0.21 mg/dL and the GLUCOSE [1] was 148.33 mg/dL. For the same compound, the “LACTATE DEHYDROGENASE” value [1] was 566.33 u/L, the LIPASE [1] was 9 u/L and the PHOSPHORUS [1] was 14.37 mg/dL. For the same compound, the POTASSIUM [1] was 6.91 MEQ/L, the SODIUM [1] was 147.5 MEQ/L and the “TOTAL BILIRUBIN” value [1] was 0.2 mg/dL. For the same compound, the “TOTAL PROTEIN” value [1] was 5.87 G/DL, the “URIC ACID” value [1] was 2.33 mg/dL and the “ABSOLUTE BASOPHIL” value [2] was 0 CELLS/uL. The “ABSOLUTE EOSINOPHIL” value [2] was 0 CELLS/uL, the “ABSOLUTE LYMPHOCYTE” value [2] was 14657 CELLS/uL and the “ABSOLUTE MONOCYTE” value [2] was 318 CELLS/uL. For the same compound, the “ABSOLUTE SEGMENTED NEUTROPHIL” value [2] was 925 CELLS/uL, the BASOPHIL [2] was 0% and the EOSINOPHIL [2] was 0%. For the same compound, the “ERYTHROCYTE COUNT” value [2] was 5.84 x10E6/uL, the HEMATOCRIT [2] was 37.7% and the HEMOGLOBIN [2] was 14.03 G/DL. The “LEUKOCYTE COUNT” value [2] was 15.9 x10E3/uL, the LYMPHOCYTE [2] was 92% and the “MEAN CORPUSCULAR HEMOGLOBIN” value [2] was 24.03 pg. For the same compound, the “MEAN CORPUSCULAR HEMOGLOBIN CONCENTRATION” value [2] was 37.23 G/DL, the “MEAN CORPUSCULAR VOLUME” value [2] was 64.47 fL and the MONOCYTE [2] was 2%. The NEUTROPHIL [2] was 6%, the “NUCLEATED RED BLOOD CELLS” value [2] was 0 /100WBC and the “PLATELET COUNT” value [2] was 1395.33 x10E3/uL. The “ALANINE AMINOTRANSFERASE” value [2] was 49.67 u/L, the ALBUMIN [2] was 4.37 G/DL and the “ALKALINE PHOSPHATASE” value [2] was 374.33 u/L. The “ASPARTATE AMINOTRANSFERASE” value [2] was 126 u/L, the “BLOOD UREA NITROGEN” value [2] was 17 mg/dL and the “CARBON DIOXIDE” value [2] was 23 mmol/L. For the same compound, the CHLORIDE [2] was 109 MEQ/L, the CHOLESTEROL [2] was 81.67 mg/dL and the “CREATINE PHOSPHOKINASE” value [2] was 1350 u/L. For the same compound, the CREATININE [2] was 0.18 mg/dL, the GLUCOSE [2] was 184.33 mg/dL and the “LACTATE DEHYDROGENASE” value [2] was 397.67 u/L. The LIPASE [2] was 9.67 u/L, the PHOSPHORUS [2] was 15.07 mg/dL and the POTASSIUM [2] was 6.82 MEQ/L. For the same compound, the SODIUM [2] was 147.1 MEQ/L, the “TOTAL BILIRUBIN” value [2] was 0.17 mg/dL and the “TOTAL PROTEIN” value [2] was 6.2 G/DL. The “URIC ACID” value [2] was 2.3 mg/dL, the “ABSOLUTE BASOPHIL” value [3] was 0 CELLS/uL and the “ABSOLUTE EOSINOPHIL” value [3] was 155 CELLS/uL. The “ABSOLUTE LYMPHOCYTE” value [3] was 10321.67 CELLS/uL, the “ABSOLUTE MONOCYTE” value [3] was 230 CELLS/uL and the “ABSOLUTE SEGMENTED NEUTROPHIL” value [3] was 793.33 CELLS/uL. For the same compound, the BASOPHIL [3] was 0%, the EOSINOPHIL [3] was 1% and the “ERYTHROCYTE COUNT” value [3] was 5.18 x10E6/uL. For the same compound, the HEMATOCRIT [3] was 33.43%, the HEMOGLOBIN [3] was 12.83 G/DL and the “LEUKOCYTE COUNT” value [3] was 11.5 x10E3/uL. The LYMPHOCYTE [3] was 90.33%, the “MEAN CORPUSCULAR HEMOGLOBIN” value [3] was 24.77 pg and the “MEAN CORPUSCULAR HEMOGLOBIN CONCENTRATION” value [3] was 38.4 G/DL. The “MEAN CORPUSCULAR VOLUME” value [3] was 64.63 fL, the MONOCYTE [3] was 2% and the NEUTROPHIL [3] was 6.67%. For the same compound, the “NUCLEATED RED BLOOD CELLS” value [3] was 0 /100WBC, the “PLATELET COUNT” value [3] was 1400 x10E3/uL and the “ALANINE AMINOTRANSFERASE” value [3] was 58 u/L. For the same compound, the ALBUMIN [3] was 4.2 G/DL, the “ALKALINE PHOSPHATASE” value [3] was 390 u/L and the “ASPARTATE AMINOTRANSFERASE” value [3] was 79.67 u/L. The “BLOOD UREA NITROGEN” value [3] was 16.67 mg/dL, the “CARBON DIOXIDE” value [3] was 23.67 mmol/L and the CHLORIDE [3] was 105 MEQ/L. The CHOLESTEROL [3] was 91.67 mg/dL, the “CREATINE PHOSPHOKINASE” value [3] was 323 u/L and the CREATININE [3] was 0.17 mg/dL. For the same compound, the GLUCOSE [3] was 164.67 mg/dL, the “LACTATE DEHYDROGENASE” value [3] was 190.67 u/L and the LIPASE [3] was 9.67 u/L. The PHOSPHORUS [3] was 13.3 mg/dL, the POTASSIUM [3] was 6.52 MEQ/L and the SODIUM [3] was 144.27 MEQ/L. The “TOTAL BILIRUBIN” value [3] was 0.2 mg/dL, the “TOTAL PROTEIN” value [3] was 5.83 G/DL and the “URIC ACID” value [3] was 1.6 mg/dL. The “ABSOLUTE BASOPHIL” value [4] was 0 CELLS/uL, the “ABSOLUTE EOSINOPHIL” value [4] was 174 CELLS/uL and the “ABSOLUTE LYMPHOCYTE” value [4] was 13614.33 CELLS/uL. The “ABSOLUTE MONOCYTE” value [4] was 314 CELLS/uL, the “ABSOLUTE SEGMENTED NEUTROPHIL” value [4] was 1597.67 CELLS/uL and the BASOPHIL [4] was 0%. For the same compound, the EOSINOPHIL [4] was 1%, the “ERYTHROCYTE COUNT” value [4] was 5.71 x10E6/uL and the HEMATOCRIT [4] was 36.2%. For the same compound, the HEMOGLOBIN [4] was 13.7 G/DL, the “LEUKOCYTE COUNT” value [4] was 15.7 x10E3/uL and the LYMPHOCYTE [4] was 86.67%. For the same compound, the “MEAN CORPUSCULAR HEMOGLOBIN” value [4] was 24 pg, the “MEAN CORPUSCULAR HEMOGLOBIN CONCENTRATION” value [4] was 37.87 G/DL and the “MEAN CORPUSCULAR VOLUME” value [4] was 63.33 fL. For the same compound, the MONOCYTE [4] was 2%, the NEUTROPHIL [4] was 10.33% and the “NUCLEATED RED BLOOD CELLS” value [4] was 0 /100WBC. For the same compound, the “PLATELET COUNT” value [4] was 1356 x10E3/uL, the “ALANINE AMINOTRANSFERASE” value [4] was 44.33 u/L and the ALBUMIN [4] was 4.33 G/DL. For the same compound, the “ALKALINE PHOSPHATASE” value [4] was 277 u/L, the “ASPARTATE AMINOTRANSFERASE” value [4] was 78 u/L and the “BLOOD UREA NITROGEN” value [4] was 18.33 mg/dL. For the same compound, the “CARBON DIOXIDE” value [4] was 26.67 mmol/L, the CHLORIDE [4] was 108.33 MEQ/L and the CHOLESTEROL [4] was 75.67 mg/dL. The “CREATINE PHOSPHOKINASE” value [4] was 555.67 u/L, the CREATININE [4] was 0.17 mg/dL and the GLUCOSE [4] was 164.67 mg/dL. The “LACTATE DEHYDROGENASE” value [4] was 144 u/L, the LIPASE [4] was 9 u/L and the PHOSPHORUS [4] was 13.8 mg/dL. The POTASSIUM [4] was 6.54 MEQ/L, the SODIUM [4] was 148.8 MEQ/L and the “TOTAL BILIRUBIN” value [4] was 0.17 mg/dL. For the same compound, the “TOTAL PROTEIN” value [4] was 6.43 G/DL and the “URIC ACID” value [4] was 1.67 mg/dL.
